Assay results as given in patent US11332470B2, “CXCR4 inhibitors and uses thereof” (X4 Pharmaceuticals, Inc., priority 2016, dated 2022).
pIC50: −log10 of the molar value.

Assays:
[1] = in vitro; conditions: human, Caco-2, pH 7.4
Method: The goal of this assay was to evaluate the intestinal absorption potential of drug candidates using Caco-2 cell lines.
1. Prewarm Prewarm HBSS Buffer in 37° C. water bath
2. Sonicate Take compounds from −20° C., sonicate for a few minutes (no less than 1 minute)
• Donor solution buffer: For A-to-B Direction: HBSS buffer with 0.3% DMSO and 5 μM LY: add 150 μL DMSO and 50 μL LY (5 mM) into 50 ml HBSS buffer (pH 7.4). HBSS buffer with 0.1% DMSO and 5 μM LY: add 50 μL DMSO and 50 μL LY (5 mM) into 50 mL HBSS buffer (pH 7.4). For B-to-A Direction: HBSS buffer with 0.3% DMSO: add 150 μL DMSO into 50 ml HBSS buffer (pH 7.4). HBSS buffer with 0.1% DMSO: add 50 μL DMSO into 50 ml HBSS buffer (pH 7.4). Receiver Solution Buffer: For A-to-B Direction: Prepare HBSS buffer with 0.4% DMSO: add 200 μL DMSO into 50 ml HBSS buffer (pH 7.4). For B-to-A Direction: Prepare HBSS buffer with 0.4% DMSO and 5 μM LY: add 200 μL DMSO and 50 μL LY (5 mM) into 50 ml HBSS buffer (pH 7.4).
4. Measure TEER Take cell culture plate out of incubator, wash the cell monolayers with HBSS buffer, and then measure TEER values at Rm temperature. 5. Centrifuge Centrifuge the compound solution (from step 3) at 4000 rpm for 5 min before loading to donor chambers. 6. Dosing Add solution based on the volumes listed in the following table (make sure to take extra 100 μL of donor sample for TO as Backup).
7. Apical LYT0 samples To determine LY concentration in the apical chamber, take 100 μL sample from apical chambers into an opaque plate for LYT0. 8. Prewarm Prewarm apical and basolateral plates at 37° C. for about 5 min, then begin transport by placing the apical plate onto basolateral plate. 9. Incubation Keep the plates in incubator at 37° C. for 90 min. 10.
Prepare Working Solution in MeOH/H2O (1:1)
• Prepare 1×solution: 3 μL (20×)+57 μL of 0.4% DMSO HBSS+60 μL ACN with IS (Osalmid or Imipramine)−120 μL (1×) 11. Transport termination Separate the apical plate from the basolateral plate after 90-min incubation. 12. Measure LY Take 100 μL samples from basolateral plate to an opaque plate as LYT90. 13. Measure LY concentrations for LYT0 and LYT90 by Fluorometer (at excitation of 485 nm/emission of 535 nm). 14.
Study details: Test concentration 10 μM
Test systems: Caco-2/HBSS solution
Incubation conditions: 0, 90 min at 37° C.
Sample size: Duplicates (n=2)
Bioanalytical method: LC-MS/MS
For Millicell-24 Cell Culture Plates: surface area of the membrane=0.7 cm^2, VA=0.8 mL (A-to-B) or 0.4 mL (B-to-A)
The compound numbers correspond to the compound numbers in Table 1.

[2] = target: T1, CXCR4 (U87.CXCR4 cells) (Homo sapiens, UniProt P61073); test: Intracellular CXCL-12-induced calcium mobilization assay (FLIPR); assay type: cell-based; conditions: CXCL-12 25-50 ng/mL, read-out: IC50 CXCL-12 Ca2+ flux U87.CXCR4+
T1 construct: expressed in transfected cells; host or cells: U87 (U87.CXCR4)
Method: Intracellular CXCL-12-Induced Calcium Mobilization Assay
Intracellular calcium mobilization induced by chemokines or chemokine-derived peptides were evaluated using a calcium responsive fluorescent probe and a FLIPR system. The CXCR-4 transfected U87 cell line (U87.CXCR4) cells were seeded in gelatine-coated black-wall 96-well plates at 20,000 cells per well and incubated for 12 hours. Cells were then loaded with the fluorescent calcium probe Fluo-2 acetoxymethyl at 4 μM final concentration in assay buffer (Hanks' balanced salt solution with 20 mM HEPES buffer and 0.2% bovine serum albumin, pH 7.4) for 45 min at 37° C. The intracellular calcium mobilization induced by the CXCL-12 (25-50 ng/mL) was then measured at 37° C. by monitoring the fluorescence as a function of time in all the wells simultaneously using a fluorometric imaging plate reader (FLIPR Tetra, Molecular Devices).

[3] = target: T2, CXCR4 (Jurkat cells expressing CXCR4) (Homo sapiens, UniProt P61073); test: Chemokine (CXCL12-AF647) binding inhibition assay; conditions: CXCL12-AF647 25 ng/mL, read-out: IC50 CXCL-12 binding Jurkat
T2 construct: Jurkat cells expressing CXCR4; endogenous in cells; host or cells: Jurkat
Method: Chemokine (CXCL12-AF647) Binding Inhibition Assay
Jurkat cells expressing CXCR4 were washed once with assay buffer (Hanks' balanced salt solution with 20 mM HEPES buffer and 0.2% bovine serum albumin, pH 7.4) and then incubated for 15 min at room temperature with the test compounds diluted in assay buffer at dose-dependent concentrations. Subsequently, CXCL12-AF647 (25 ng/mL) was added to the compound-incubated cells. The cells were incubated for 30 min at room temperature. Thereafter, the cells were washed twice in assay buffer, fixed in 1% paraformaldehyde in PBS, and analyzed on the FL4 channel of a FACSCalibur flow cytometer equipped with a 635-nm red diode laser (Becton Dickinson, San Jose, Calif., USA).
The percentages of inhibition of CXCL12-AF647 binding were calculated according to the formula: [1−((MFI−MFINC)/(MFIPC−MFINC))]×100 where MFI is the mean fluorescence intensity of the cells incubated with CXCL12-AF647 in the presence of the inhibitor, MFINC is the mean fluorescence intensity measured in the negative control (i.e., autofluorescence of unlabeled cells), and MFIPC is the mean fluorescence intensity of the positive control (i.e., cells exposed to CXCL12-AF647 alone).

T1 sequence (P61073 whole entry): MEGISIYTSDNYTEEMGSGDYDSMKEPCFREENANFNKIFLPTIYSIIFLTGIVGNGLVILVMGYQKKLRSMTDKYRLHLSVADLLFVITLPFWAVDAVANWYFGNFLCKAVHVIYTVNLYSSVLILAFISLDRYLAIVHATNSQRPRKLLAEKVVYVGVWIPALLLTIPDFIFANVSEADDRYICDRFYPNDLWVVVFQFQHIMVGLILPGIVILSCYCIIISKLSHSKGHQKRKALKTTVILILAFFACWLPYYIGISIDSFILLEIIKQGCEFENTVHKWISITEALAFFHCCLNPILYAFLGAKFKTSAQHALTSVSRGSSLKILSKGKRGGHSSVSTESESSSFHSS
T2 sequence (P61073 whole entry): as above

| SMILES | Papp A→B at 90 min, 10 μM [1] [×10⁻⁶ cm/s] | Papp B→A at 90 min, 10 μM [1] [×10⁻⁶ cm/s] | efflux ratio at 90 min, 10 μM [1] | pIC50 [2] | pIC50 [3] |
| --- | --- | --- | --- | --- | --- |
| Cc1cccnc1C1CCCCN1Cc1cn2c(N3CCN(C)CC3)cccc2n1 (stereo not drawn) [Compound I-1, 5-(4-methylpiperazin-1-yl)-2-((2-(3-methylpyridin-2-yl)piperidin-1-yl)methyl)imidazo[1,2-a]-pyridine] | 0.1 to 10 | 10 to 30 | 0.1 to 10 | 6.00 to 7.00 | 7.00 to 11.00 |
| Cc1cccnc1C1CCCCN1Cc1ccccc1-n1cccn1 (stereo not drawn) [Compound I-2, 2-(1-(2-(1H-pyrazol-1-yl)benzyl)piperidin-2-yl)-3-methylpyridine] | > 30 | > 30 | 0.1 to 10 | ≤ 6.00 | ≤ 6.00 |
| CN1CCN(c2cccc3nc(C4CCCCN4Cc4ccccc4-n4cccn4)[nH]c23)CC1 (stereo not drawn) [Compound I-3, 2-(1-(2-(1H-pyrazol-1-yl)benzyl)piperidin-2-yl)-7-(4-methylpiperazin-1-yl)-1H-benzo[d]imidazole] |  |  |  | ≤ 6.00 | ≤ 6.00 |
| Cc1cccnc1C1CCCN1Cc1ccccc1-n1cccn1 (stereo not drawn) [Compound I-4, 2-(1-(2-(1H-pyrazol-1-yl)benzyl)pyrrolidin-2-yl)-3-methylpyridine] | > 30 | 10 to 30 | 0.1 to 10 | 6.00 to 7.00 | ≤ 6.00 |
| CN1CCN(c2cccc3[nH]c(C4CCCN4Cc4ccccc4-n4cccn4)nc23)CC1 (stereo not drawn) [Compound I-5, 2-(1-(2-(1H-pyrazol-1-yl)benzyl)pyrrolidin-2-yl)-7-(4-methylpiperazin-1-yl)-1H-benzo[d]imidazole] |  |  |  | ≤ 6.00 | ≤ 6.00 |
| Cc1cccnc1C1CCCN1Cc1cn2c(N3CCN(C)CC3)cccc2n1 (stereo not drawn) [Compound I-6, 5-(4-methylpiperazin-1-yl)-2-((2-(3-methylpyridin-2-yl)pyrrolidin-1-yl)methyl)imidazo[1,2-a]-pyridine] | 0.1 to 10 | 10 to 30 | 10 to 30 | 7.00 to 11.00 | 7.00 to 11.00 |
| Cc1cccnc1C1CCCN1Cc1nc2cccc(N3CCN(C)CC3)n2c1Br (stereo not drawn) [Compound I-7, 3-bromo-5-(4-methylpiperazin-1-yl)-2-((2-(3-methylpyridin-2-yl)pyrrolidin-1-yl)methyl)imi-dazo[1,2-a]pyridine] | 0.1 to 10 | 10 to 30 | 0.1 to 10 | 6.00 to 7.00 | 6.00 to 7.00 |
| Cc1cccnc1C1CCCN1Cc1nc2cccc(N3CCN(C)CC3)n2c1CO (stereo not drawn) [Compound I-8, (5-(4-methylpiperazin-1-yl)-2-((2-(3-methylpyridin-2-yl)pyrrolidin-1-yl)methyl)imidazo[1,2-a]pyridin-3-yl)methanol] | 0.1 to 10 | 10 to 30 | > 30 | 6.00 to 7.00 | 7.00 to 11.00 |
| Cc1cccnc1C1CCCN1Cc1nc2c(N3CCN(C)CC3)cccc2[nH]1 (stereo not drawn) [Compound I-11] | 0.1 to 10 | 10 to 30 | 0.1 to 10 | 7.00 to 11.00 | 7.00 to 11.00 |
| CN1CCN(c2cccc3nc(CN4CCCC4c4nccc5ccccc45)cn23)CC1 (stereo not drawn) [Compound I-14] | 0.1 to 10 | 10 to 30 | 0.1 to 10 | 6.00 to 7.00 | 7.00 to 11.00 |
| CN1CCN(c2cccc3nc(CN4CCCC4c4ncccc4Cl)cn23)CC1 (stereo not drawn) [Compound I-27] | 0.1 to 10 | 10 to 30 | 0.1 to 10 | 6.00 to 7.00 | 7.00 to 11.00 |
| Cc1cccnc1C1CCCN1Cc1ncccc1-n1cccn1 (stereo not drawn) [Compound I-66] |  |  |  | ≤ 6.00 | 6.00 to 7.00 |
| c1ccc(C2CCCN2Cc2ncccc2-n2cccn2)nc1 (stereo not drawn) [Compound I-67] |  |  |  | ≤ 6.00 | ≤ 6.00 |
| Cc1cccnc1C1CCCN1Cc1nc2cccc(N3CCN(C)CC3)c2o1 (stereo not drawn) [Compound I-71] |  |  |  | ≤ 6.00 | 6.00 to 7.00 |
| Cc1cccnc1C1CCCN1Cc1nc2c(N3CCN(C)CC3)cccc2o1 (stereo not drawn) [Compound I-72] |  |  |  | ≤ 6.00 | ≤ 6.00 |
